Our source for the TGI values is PubChem BioAssay (NCI).

Common to all, as to assay: NCI tumour cell line growth inhibition, 48 h
For experiment [1], the system named is DLD-1 colon.
The subject of experiment [2] is RXF-631 renal.
Experiment [3] concerns SNB-78 CNS.
Experiment [4] concerns XF 498 CNS.
In experiment [5] the test system is HOP-18 NSCLC.
Experiment [6] has as its system P388 leukemia.
In experiment [7] the test system is P388/ADR leukemia.
Experiment [8] deals with SN12K1 renal.

Molecules are shown by their SMILES.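 Where inhibition never reached the appropriate level, the endpoint shown equals the highest concentration tested. Otherwise, values were interpolated linearly from a five-concentration, 48-hour dose response in 96-well plates. The concentration for full growth arrest is given as TGI.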 Bounds are passed on as bounds.

In the case of `COC(=O)C1C=CCON2CCc3c(n(C)c4ccccc34)C12` (stereo not given), the TGI in experiment [1], in experiment [2], in experiment [3] and in experiment [4] was over 100 µM each time.
Take `COC(=O)/C(=N/Nc1cccc(Cl)c1)C(C(=O)C(=O)Nc1cccc(Cl)c1C)c1nc2ccccc2nc1C` (stereo not given): the TGI in experiment [1] was over 100 µM.
`O=[N+]([O-])c1ccccc1S(=O)(=O)c1ccccc1`: the TGI in experiment [1] was over 100 µM; in experiment [5], over 100 µM; in experiment [2], 47 µM; in experiment [4], over 100 µM.
As for `O=S(OC12CC3CC(CC(C3)C1)C2)c1cc(Cl)cc(Cl)c1OCc1ccccc1` (stereo not given), the TGI in experiment [1], in experiment [2], in experiment [3] and in experiment [4] was over 100 µM each time.
`C=CCc1cc(-c2cc(CC=C)c(O)c(CN(CC)CC)c2)cc(CN(CC)CC)c1O`: the TGI is over 100 µM in experiment [1], over 100 µM in experiment [5], 44.5 µM in experiment [2] and over 100 µM in experiment [3].
On to `Cc1nc2c(o1)C(=Nc1ccccc1)c1ccccc1C2=O`, for which the TGI in experiment [1] amounted to 32 µM; in experiment [5], 18 µM; in experiment [3] it was 37.6 µM; in experiment [4], 12.5 µM.
Take `CCN(CC)c1ccc(N=Nc2ccc([N+](=O)[O-])cc2OC(=O)/C=C/c2ccccc2)c(OC(=O)/C=C/c2ccccc2)c1`: the TGI in experiment [1] was over 100 µM; in experiment [5], 9.04 µM; in experiment [2], over 100 µM; in experiment [3], over 100 µM; in experiment [4], over 100 µM.
Turning to `O=c1cc(-c2c[nH]c3ccccc23)[nH]c2cc3c(cc12)OCO3`, the TGI in experiment [1], in experiment [2] and in experiment [4] was over 100 µM in each case.
As to `CCC/C=C1\CCC(CN(C)C)C1=O` (stereo not given), the results for the TGI in experiment [1], in experiment [5] and in experiment [4] were 5.54 µM, 39 µM and 11.1 µM, respectively.
Take `COP(=O)(OC)C(NC(=O)C(F)(F)F)(c1ccccc1)C(F)(F)F` (stereo not given): the TGI in experiment [1], in experiment [5] and in experiment [4] was over 100 µM throughout.
As for `O=C1C=C2SC3C[C@@]24CC1[N+]1=c2c4c(c(O)c4c2=C(C=N4)CC1)N3`, the TGI in experiment [1] was 5.12 µM; in experiment [5] it was 18.9 µM; in experiment [6], 4.15 µM; in experiment [7], 23.1 µM; in experiment [8], 3.76 µM; in experiment [3], 5.88 µM. In experiment [4], the TGI is 3.34 µM.
For `Cc1ccc(C(=O)N(Cc2ccccc2)Cc2ccccc2)cc1N=NN(C)C`, the TGI in experiment [1] and in experiment [3] was over 100 µM each time.
As for `O=C1C=CC(=C(c2ccc(O)cc2)c2ccc(O)cc2)C=C1`, the TGI in experiment [1] worked out at 23.4 µM; in experiment [5], 30.3 µM; in experiment [2], 29.6 µM; in experiment [3], 17.4 µM; in experiment [4] it was 24.4 µM.
Regarding `CCCC(C)n1c(C)nc2c1C(=O)c1ccccc1C2=O` (stereo not given), the figures for the TGI in experiment [1], in experiment [3] and in experiment [4] were over 100 µM, over 100 µM and 50.1 µM, respectively.
With `COc1cc(CNc2cnc3cc(N)ccc3n2)cc(OC)c1OC`, the TGI in experiment [1], in experiment [5] and in experiment [4] was over 100 µM each time.
